We go through six molecules from US6743413B1, “Suspension aerosol formulations” (3M Company, priority 1991, dated 2004).

Type in all cases: physicochemical
Series [1] is described as follows: Visual observation of suspension aerosol formulations (dispersion, flocculation, settling, creaming, suitability for metered dose inhaler). As to conditions: for homogeneity of suspension: Example 1: 1.6 percent in HFC 134a. The procedure: (§1) For each of the micronized drug substances A-G set forth below, formulations were prepared at drug concentrations of 0.017 percent, 0.039 percent, 0.083 percent, 0.41 percent, and 1.6 percent by weight based on the total weight of the formulation (corresponding to 0.20 mg/mL, 0.50 mg/mL, 1.0 mg/mL, 5.0 mg/Ml, and 20 mg/mL, respectively). The formulations were prepared by dispersing micronized drug in HFC 134a in a sealed 15 mL clear PET vial using ultrasonic energy.
For each propellant mix the range of drug concentrations used in Example 1 was used.
BDP formulations were prepared at 0.070 percent by weight (1.0 mg/mL) in HFC 227 and at 0.38 percent by weight (5.0 mg/mL) in a 1:1 mixture of HFC 227 and HFC 134a.
Formulations of salmeterol free base at 0.02 percent by weight and 0.05 percent by weight were prepared in HFC 134a and in HFC 227 by placing the drug and 5 mL of glass beads into a 15 mL glass vial, crimping on a continuous valve, and adding the appropriate amount of propellant. The formulations were shaken on a paint shaker for 10 min in order to disperse the drug.
The vial was then shaken on a paint shaker, chilled, and the contents transferred to 10 mL vials fitted with the metered dose valve. […] Valve delivery was measured through the life of the formulations.

Series [2] can be described thus: Visual assessment of suspension formulations by time lapse photography 10 and 30 seconds after agitation. Further details: key: + = visually acceptable formulation; − = visually unacceptable formulation; ? = border line acceptable formulation. The procedure: as §1
Using time lapse photography 10 and 30 seconds after agitation the formulations were assessed as follows: […]
The formulations were photographed using time lapse photography at 10 and 30 seconds post agitation and were assessed as follows: […]

The nature of series [3]: Respirable fraction (Anderson Cascade Impactor). The procedure: In this assay the respirable fraction (the percent by weight of particles having an aerodynamic particle size of less than 4.7 microns) of the aerosol suspension is determined using an Anderson Cascade Impactor (available from Anderson Sampler Inc,; Atlanta, Ga.).
The aerosol vial to be tested is primed five times. The valve and valve stem are then cleaned with methanol and dried with compressed air. The aerosol vial and a clean, dry actuator are coupled to the glass throat attached to the top of the impactor using an appropriate firing adaptor. The calibrated vacuum pump (28.3 L/min) attached to the cascade impactor is turned on. A total of 20 sprays is delivered into the cascade impactor by repeatedly shaking the vial, seating it in the actuator and immediately delivering a single spray. The time between sprays is approximately 30 seconds. The cascade impactor is disassembled and each component is rinsed separately with diluent (55 parts methanol mixed with 45 parts of 0.1 percent aqueous phosphoric acid, v/v). Each solution is analyzed for pirbuterol acetate content using high performance liquid chromatography. The respirable fraction is calculated as follows:
% respirable=drug recovered from plates 3-7×100 total drug−drug recovered from recovered actuator and valve
In Examples 13-14 below respirable fraction is determined using the test method described above but using a diluent of 45 parts by volume methanol and 55 parts by volume of 0.1 percent aqueous phosphoric acid.

[4] abbreviates: Example 1: drug concentration 0.017 % in HFC 134a alone.
The mark [5] stands for this setting: Example 1: drug concentration 0.039 % in HFC 134a alone.
Where [6] appears, read: Example 1: drug concentration 0.083 % in HFC 134a alone.
Setting [7] is: Example 1: drug concentration 0.41 % in HFC 134a alone.
[8] abbreviates: Example 1: drug concentration 1.63 % in HFC 134a alone.
The mark [9] stands for this setting: Example 4: 0.070 percent in HFC 227.
The mark [10] stands for this setting: Example 4: 0.38 percent in 1:1 HFC 134a/HFC 227.
Where [11] appears, read: Example 5: 0.02 and 0.05 percent by weight in HFC 134a and in HFC 227.

“And” between values parts separate entries of the source, which are not always exact repeats. Equal entries are not always repeated.

Regarding Albuterol sulfate, in series [1] (Comparative Example: CFC propellant mixes A and B (Propellants 11/114/12), no surfactant, 0.20, 0.50 and 1.0 mg/mL), the homogeneity of formulation result is listed as “acceptably homogenous”. The “caking of drug on container walls” value in series [1] (Comparative Example: CFC propellant mixes A and B versus HFC 134a counterparts of Example 1) is recorded as “more caking of drug on the walls of the container than their HFC 134a counterparts”. Also, the flocculation result in series [1] (Comparative Example: CFC propellant mixes A and B, no surfactant, 5.0 and 20 mg/mL) is “relatively rapid flocculation”. For the same molecule, the “suitability for metered dose inhaler” value in series [1] (Example 15: 0.37 percent albuterol sulfate, 0.10 percent sorbitan trioleate, 9.95 percent ethanol, 89.58 percent HFC 227) is “deemed to be suitable for use in connection with a metered dose inhaler”. Further, the “visual assessment of formulation” value in series [2] (setting [4]) is on record as “+”; in series [2] (setting [5]) it was “+”; in series [2] (setting [6]), “+”; in series [2] (setting [7]), “−”; in series [2] (setting [8]), “−”. Moreover, the “respirable fraction (aerodynamic particle size less than 4.7 microns)” value in series [3] (Example 13: 0.4 percent by weight albuterol sulfate in HFC 227, duplicate, two vials) was 69.3% and 60.6% and 64.0% and 63.0%; in series [3] (Example 14: 0.40 percent albuterol sulfate, 0.50 percent oleic acid, 15.0 percent ethanol, HFC 227, duplicate, two vials), 28.0% and 22.0% and 27.1% and 28.8%.

On to `CC(C)(C)NCC(O)c1ccc(O)c(CO)c1` (stereo not drawn) [Albuterol], for which, in series [1], the homogeneity of suspension result was “particularly homogenous suspensions”. Moreover, the “visual assessment of formulation” value in series [2] (setting [4]) is “+”; in series [2] (setting [5]) it was “+”; in series [2] (setting [6]), “?”; in series [2] (setting [7]) it was “−”; in series [2] (setting [8]), “+”.

On to `CCC(=O)OCC(=O)[C@@]1(OC(=O)CC)[C@@H](C)C[C@H]2[C@@H]3CCC4=CC(=O)C=C[C@]4(C)[C@@]3(Cl)[C@@H](O)C[C@@]21C` [Beclomethasone dipropionate], for which, in series [1], the homogeneity of suspension result is recorded as “particularly homogenous suspensions”. Besides, the dispersion entry in series [1] (setting [9]) is on record as “fairly well dispersed”. Also, the “time of flocculation after shaking” value in series [1] (setting [9]) is “about 10 seconds”. Further, in series [1] (setting [10]), the flocculation entry is listed as “flocculation was rapid”. In addition, the “settling or creaming of flocs” value in series [1] (setting [10]) is reported as “the flocs neither settled nor creamed”. Moreover, the “visual assessment of formulation” value in series [2] (setting [4]) is given as “+”; in series [2] (setting [5]), “+”; in series [2] (setting [6]) it was “?”; in series [2] (setting [7]), “−”; in series [2] (setting [8]), “+”.

`OCc1cc(C(O)CNCCCCCCOCCCCc2ccccc2)ccc1O` (stereo not drawn) [salmeterol free base, salmeterol]: in series [1] (setting [11]), the creaming entry is recorded as “cream in both propellants, more so in HFC 227 than in HFC 134a”; the flocculation result is “Flocculation was also apparent”; the “suitability for metered dose inhaler” value is “deemed suitable for use in connection with a metered dose inhaler”.

Regarding Pirbuterol acetate, the “suitability for metered dose inhaler” value in series [1] (Example 9: 0.9 percent by weight pirbuterol acetate in HFC 227) was “deemed to be suitable for use in connection with a metered dose inhaler”; in series [1] (Example 10: 0.90 percent pirbuterol acetate, 0.23 percent oleic acid, 10.0 percent ethanol, HFC 227) it was “deemed to be suitable for use in connection with a metered dose inhaler”. Further, the “visual assessment of formulation” value in series [2] (setting [4]) was “+”; in series [2] (setting [5]), “+”; in series [2] (setting [6]), “?”; in series [2] (setting [7]), “?”; in series [2] (setting [8]), “+”. The “respirable fraction (aerodynamic particle size less than 4.7 microns)” value in series [3] (Example 11: 0.9 percent by weight pirbuterol acetate in HFC 227, duplicate, two vials) was 59.1% and 54.8% and 53.9% and 49.3%; in series [3] (Example 12: 0.9 percent pirbuterol acetate, 10 percent ethanol, HFC 227, duplicate, two vials), 34.9% and 32.5% and 31.7% and 31.3%; in series [3] (Example 16: 0.9 percent pirbuterol acetate, 3 percent ethanol, HFC 227, two separate vials), 59.8% and 52.8%; in series [3] (Example 17: 0.9 percent pirbuterol acetate, 5 percent ethanol, HFC 227, two separate vials), 48.2% and 43.5%.

For `O=C([O-])c1cc(=O)c2c(OCC(O)COc3cccc4oc(C(=O)[O-])cc(=O)c34)cccc2o1.[Na+].[Na+]` [Disodium cromoglycate], in series [1] (Example 2: 0.015, 0.035 and 0.070 percent by weight in HFC 227, no surfactant), the homogeneity of formulation entry is “particularly homogenous”. The flocculation and sedimentation result in series [1] (Example 2: 0.35 percent and 1.4 percent in HFC 227, no surfactant) was “more rapid flocculation and sedimentation”. The “visual assessment of formulation” value in series [2] (setting [4]) is listed as “+”; in series [2] (setting [5]), “+”; in series [2] (setting [6]) it was “?”; in series [2] (setting [7]), “−”; in series [2] (setting [8]), “−”.
